Experiments:
[1] = test system: Donor 3 GMA T-cell lines (165-B5G, 165-C4G, 165-C5G, 165-E9G, 165-F5G, 165-F10G); test: MHC DR restriction testing (ATP proliferation with autologous and partially HLA-DR matched APC), Donor 3 GMA T-cell lines; assay type: cell-based, human; conditions: 20 μg/mL
Experimental: MHC DR restriction testing of cell lines was carried out by measuring the proliferation response of the cell lines as described above in the presence of an array of APC selected based on the known HLA-DR loci of the original PBMC donor for the cell line tested, including autologous APC (B-LCL). The donors used are described in Table 2.
To define the MHC molecule used to present antigen to GA specific T cell lines, GA specific responses were measured in the presence of autologous APC and in the presence of APC matching one of the T cell donor's HLA-DR alleles. Therefore at least 3 APC were used in each experiment: autologous APC, APC matching DR allele 1 but not allele 2 and a third APC matching allele 2 but not allele 1. In some experiments a fourth APC B-LCL was used. A no antigen negative control was used. APC were inactivated by incubation with 50 ug/mL mitomycin C. Following inactivation, cells were washed three times to remove mitomycin C and suspended in X-VIVO 15 medium at 1×10^6 cells per mL. GA was added to the cell suspension to a final concentration of 20-60 μg/mL. The cells were incubated with antigen for 1 hour at 37° C. to allow antigen uptake and binding. The cell suspension was then centrifuged to pellet the cells and the cell pellet was washed once with medium. APC were adjusted to 2×10^5 cells per mL in X-VIVO 15 medium and added to opaque 96-well plates at 100 μL per well. T-cell suspensions of 2-4×10^5 cells per mL (unless otherwise specified) were added to the 96-well plates at 100 μL per well and the cultures incubated 4 days before measuring cell numbers using CellTiter Glo® (to evaluate proliferation).
Alternatively, APC were not pulsed. Instead, each well contained 10 ug/mL antigen, 50 μl APC and 100 μL of T cells.
After incubating for 4 days at 37° C. (5% CO2), 100 μL were removed from each well, combined with 100 μL CellTiterGlo reagent, and luminescence was measured using a Packard Fusion. Results were expressed in relative light units (RLU).
As described in the Methods, T-cell lines were tested for MHC restriction by measuring proliferation following incubation with APC. Mitomycin-treated autologous APC, and test APC, e.g., from donors having at least one HLA-DR match with the original PBMC donor were employed. The values in the data tables below are in RLU.
(§1) Donor 3 T-cell line 165-B5G was assayed for proliferation, using mitomycin-treated APC from Donors 3, 5, and 6 that had been incubated in the presence or the absence of 20 μg/mL GMA. T-cell line 165-B5G had been restimulated six times (not including the initial stimulation) with antigen before the MHC restriction assay was carried out. The data, shown in Table 62 and FIG. 9A, indicate that 165-B5G is restricted by HLA-DRβ1*11.
as §1, with “165-C4G” for “165-B5G”, “7” for “6”, “five” for “six”, “63” for “62”, “9B,” for “9A,”
as §1, with “165-05G” for “165-B5G”, “four” for “six”, “64” for “62”, “10A,” for “9A,”, “HLA-DRβ1*1501.” for “HLA-DRβ1*11.”
as §1, with “165-E9G” for “165-B5G”, “four” for “six”, “The data, shown in Table 62 and FIG. 9A, indicate that 165-B5G is restricted by HLA-DRβ1*11.” left out

[2] = test system: GA-specific T-cell lines; assay type: cell-based, human; conditions: concentrations approaching and exceeding 10 μg/mL; data not shown
Experimental: GA-specific T-cell lines from Donors 1 and 3 were tested for proliferation in response to stimulation with peptide GL 14, poly (Glu-Lys 1:4).

| Substance | Proliferation with antigen-incubated APC ([1]; T-cell line 165-B5G, B-LCL Donor 3 (Autologous) DRβ1*1501/DRβ1*11) [RLU] | Proliferation with antigen-incubated APC ([1]; T-cell line 165-B5G, B-LCL Donor 5 DRβ1*01/DRβ1*11) [RLU] | Proliferation with antigen-incubated APC ([1]; T-cell line 165-B5G, B-LCL Donor 6 DRβ1*1501/DRβ1*13) [RLU] | Proliferation with antigen-incubated APC ([1]; T-cell line 165-C4G, B-LCL Donor 3 (Autologous) DRβ1*1501/DRβ1*11) [RLU] | Proliferation with antigen-incubated APC ([1]; T-cell line 165-C4G, B-LCL Donor 5 DRβ1*01/DRβ1*11) [RLU] | Proliferation with antigen-incubated APC ([1]; T-cell line 165-C4G, B-LCL Donor 7 DRβ1*1501/DRβ1*03) [RLU] | Proliferation with antigen-incubated APC ([1]; T-cell line 165-C5G, B-LCL Donor 3 (Autologous) DRβ1*1501/DRβ1*11) [RLU] | Proliferation with antigen-incubated APC ([1]; T-cell line 165-C5G, B-LCL Donor 5 DRβ1*01/DRβ1*11) [RLU] | Proliferation with antigen-incubated APC ([1]; T-cell line 165-C5G, B-LCL Donor 6 DRβ1*1501/DRβ1*13) [RLU] | Proliferation with antigen-incubated APC ([1]; T-cell line 165-E9G, B-LCL Donor 3 (Autologous) DRβ1*1501/DRβ1*11) [RLU] | Proliferation with antigen-incubated APC ([1]; T-cell line 165-E9G, B-LCL Donor 5 DRβ1*01/DRβ1*11) [RLU] | Proliferation with antigen-incubated APC ([1]; T-cell line 165-E9G, B-LCL Donor 6 DRβ1*1501/DRβ1*13) [RLU] | Proliferation with antigen-incubated APC ([1]; T-cell line 165-F5G, B-LCL Donor 3 (Autologous) DRβ1*1501/DRβ1*11) [RLU] | Proliferation with antigen-incubated APC ([1]; T-cell line 165-F5G, B-LCL Donor 5 DRβ1*01/DRβ1*11) [RLU] | Proliferation with antigen-incubated APC ([1]; T-cell line 165-F5G, B-LCL Donor 6 DRβ1*1501/DRβ1*13) [RLU] | Proliferation with antigen-incubated APC ([1]; T-cell line 165-F10G, B-LCL Donor 3 (Autologous) DRβ1*1501/DRβ1*11) [RLU] | Proliferation with antigen-incubated APC ([1]; T-cell line 165-F10G, B-LCL Donor 5 DRβ1*01/DRβ1*11) [RLU] | Proliferation with antigen-incubated APC ([1]; T-cell line 165-F10G, B-LCL Donor 7 DRβ1*1501/DRβ1*03) [RLU] | cell death [2] |
| --- | --- | --- | --- | --- | --- | --- | --- | --- | --- | --- | --- | --- | --- | --- | --- | --- | --- | --- | --- |
| glatiramer acetate [GMA] | 4776 | 5450 | 2360 | 48711 | 41833 | 4870 | 16461 | 9825 | 31717 | 5452 | 9514 | 1442 | 2862 | 3971 | 1424 | 120946 | 6221 | 151115 |  |
| poly (Glu-Lys; 1:4) [GL 14] |  |  |  |  |  |  |  |  |  |  |  |  |  |  |  |  |  |  | causes cell death |

— patent US9995734B2, “Human T cell line assay for evaluating the immunologic identity of glatiramer acetate preparations” (Mylan Inc., priority 2013, dated 2018)
